Assay results taken from patent US20260285880A1, “SUBSTITUTED DIHYDROTHIENOPYRIMIDINE COMPOUND, PREPARATION METHOD THEREFOR, AND USE THEREOF” (SHANGHAI YIDI BIOTECHNOLOGY CO., LTD., priority 2023, published 2026).

Tests used:
[1] = target: PDE4D2 (Homo sapiens, UniProt Q08499); assay: PDE4D2 enzyme experiment (AMP-Glo); conditions: read-out: PDE4D2 IC50 Binding; enzyme assay
[2] = target: Flpin-293-PDE4B2 cells (Homo sapiens, UniProt Q07343); assay: cell-based; conditions: for inhibition at 0.001 µM: read-out: Cell Inhibition % @1 nM, 1 nM, Flpin-293-PDE4B2 cells; for inhibition at 0.01 µM: read-out: Cell Inhibition % @10 nM, 10 nM, Flpin-293-PDE4B2 cells; for inhibition at 0.1 µM: read-out: Cell Inhibition % @100 nM, 100 nM, Flpin-293-PDE4B2 cells
[3] = target: PDE4B2 (Homo sapiens, UniProt Q07343); conditions: read-out: PDE4B2 IC50; enzyme assay
Sequence of PDE4B2 (Q07343 1-564 isoform Q07343-2, species assumed): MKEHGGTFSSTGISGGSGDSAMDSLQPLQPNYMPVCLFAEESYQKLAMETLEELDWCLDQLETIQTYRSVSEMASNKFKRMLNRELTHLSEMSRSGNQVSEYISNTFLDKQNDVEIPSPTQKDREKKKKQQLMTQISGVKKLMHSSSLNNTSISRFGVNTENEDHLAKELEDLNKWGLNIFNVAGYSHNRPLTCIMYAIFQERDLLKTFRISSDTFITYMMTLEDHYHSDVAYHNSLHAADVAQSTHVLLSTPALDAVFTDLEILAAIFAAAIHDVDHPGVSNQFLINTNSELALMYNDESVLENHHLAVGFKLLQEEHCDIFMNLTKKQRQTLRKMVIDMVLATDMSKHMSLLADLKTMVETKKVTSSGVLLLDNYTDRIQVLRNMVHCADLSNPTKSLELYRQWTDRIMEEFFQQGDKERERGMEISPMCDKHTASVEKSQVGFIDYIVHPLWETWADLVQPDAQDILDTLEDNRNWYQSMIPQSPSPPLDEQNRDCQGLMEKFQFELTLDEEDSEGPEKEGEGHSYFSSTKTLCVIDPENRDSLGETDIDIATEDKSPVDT

Sequence of Flpin-293-PDE4B2 cells (Q07343 1-564 isoform Q07343-2): as the sequence (Q07343 1-564 isoform Q07343-2, species assumed) above
Sequence of PDE4D2 (Q08499 303-809 limits assumed): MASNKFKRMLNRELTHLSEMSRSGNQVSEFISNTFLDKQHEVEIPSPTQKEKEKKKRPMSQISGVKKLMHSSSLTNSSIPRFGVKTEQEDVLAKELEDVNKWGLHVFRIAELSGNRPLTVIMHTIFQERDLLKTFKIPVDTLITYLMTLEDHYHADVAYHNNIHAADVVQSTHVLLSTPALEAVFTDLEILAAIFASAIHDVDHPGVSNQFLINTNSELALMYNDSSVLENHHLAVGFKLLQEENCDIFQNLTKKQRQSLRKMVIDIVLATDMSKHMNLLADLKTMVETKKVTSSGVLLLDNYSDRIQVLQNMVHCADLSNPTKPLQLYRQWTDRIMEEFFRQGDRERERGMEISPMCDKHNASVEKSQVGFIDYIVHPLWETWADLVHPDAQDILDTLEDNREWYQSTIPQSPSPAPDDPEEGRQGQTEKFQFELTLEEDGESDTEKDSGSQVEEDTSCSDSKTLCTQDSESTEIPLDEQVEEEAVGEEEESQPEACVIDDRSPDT

Row | IC50 [1] | inhibition at 0.001 µM [2] | inhibition at 0.01 µM [2] | inhibition at 0.1 µM [2] | IC50 [3] | SMILES
1 | 0.145 nM | 24.4% | 93.5% | 101% | 0.066 nM | [O-][S+]1CCc2nc(N3CCc4cc(N5CCCC5)ccc4C3)nc(NC3CCOCC3)c21 (centres unmarked) [Compound 189]
2 | 0.985 nM | 4.25% | 36% | 95.9% | 0.245 nM | [O-][S+]1CCc2nc(N3CCc4cc(N5CC6CC6C5)ccc4C3)nc(NC3(CO)CCC3)c21 (centres unmarked) [Compound 145]
3 | 0.651 nM | 16.2% | 78.6% | 102% | 0.368 nM | [O-][S+]1CCc2nc(N3CCc4cc(N5CCC[C@H]5CO)ccc4C3)nc(NC3(CO)CCC3)c21 (some centres unmarked) [Compound 132]
4 | 0.73 nM | 8.72% | 39.6% | 96.6% | 0.387 nM | [O-][S+]1CCc2nc(N3CCc4cc(N5CCCC5)ccc4C3)nc(N3CCC[C@H]3CO)c21 (some centres unmarked) [Compound 188]
5 | 0.697 nM | 7.35% | 51.4% | 98.6% | 0.44 nM | [O-][S+]1CCc2nc(N3CCc4cc(N5CCOCC5)ccc4C3)nc(NC3(CO)CCC3)c21 (centres unmarked) [Compound 144]
6 | 0.45 nM | 15.4% | 60.3% | 99.2% | 0.14 nM | [O-][S+]1CCc2nc(N3CCc4cc(N5CCCC5)ccc4C3)nc(Nc3cnn(C4COC4)c3)c21 (centres unmarked) [Compound 192]
7 | 1.98 nM | 2.85% | 21.8% | 90.6% | 0.968 nM | [O-][S+]1CCc2nc(N3CCc4cc(Cl)ccc4[C@H]3C3CC3)nc(NC3(CO)CCC3)c21 (some centres unmarked) [Compound 125]
8 | 0.46 nM | 9.95% | 51.5% | 92.2% | 0.502 nM | CN1CC2CN(c3ccc4c(c3)CCN(c3nc5c(c(NC6(CO)CCC6)n3)[S+]([O-])CC5)C4)CC2C1 (centres unmarked) [Compound 179]
9 | 0.333 nM | 16.6% | 76% | 98.7% | 0.147 nM | [O-][S+]1CCc2nc(N3CCc4cc(N5CC[C@@H](CO)C5)ccc4C3)nc(NC3(CO)CCC3)c21 (some centres unmarked) [Compound 131]
10 | 0.389 nM | 16.8% | 73.4% | 99.6% | 0.224 nM | N#CC1CCN(c2ccc3c(c2)CCN(c2nc4c(c(NC5(CO)CCC5)n2)[S+]([O-])CC4)C3)C1 (centres unmarked) [Compound 159]
11 | 0.424 nM | 9.78% | 73% | 100% | 0.164 nM | NC(=O)Cc1ccc(Nc2nc(N3CCc4cc(Cl)ccc4C3)nc3c2[S+]([O-])CC3)cc1 (centres unmarked) [Compound 127]
12 | 0.603 nM | 6.9% | 59.4% | 98.4% | 0.299 nM | CC1(O)CCN(c2ccc3c(c2)CCN(c2nc4c(c(NC5(CO)CCC5)n2)[S+]([O-])CC4)C3)C1 (centres unmarked) [Compound 175]
13 | 1.08 nM | 5.99% | 38.3% | 96% | 0.43 nM | [O-][S+]1CCc2nc(N3CCc4cc(N5CCC(F)C5)ccc4C3)nc(NC3(CO)CCC3)c21 (centres unmarked) [Compound 149]
14 | 0.453 nM | 9.23% | 61.6% | 98.2% | 0.457 nM | [O-][S+]1CCc2nc(N3CCc4cc(N5CCC6(CC5)COC6)ccc4C3)nc(NC3(CO)CCC3)c21 (centres unmarked) [Compound 166]
15 | 0.116 nM | 25.3% | 93.8% | 101% | 0.45 nM | O=S1(=O)CCC(Nc2nc(N3CCc4cc(N5CCCC5)ccc4C3)nc3c2[S+]([O-])CC3)CC1 (centres unmarked) [Compound 187]
16 | 0.244 nM | 23.7% | 89.5% | 100% | 0.0693 nM | COC(=O)N1CC[C@H](Nc2nc(N3CCc4cc(N5CCCC5)ccc4C3)nc3c2[S+]([O-])CC3)C1 (some centres unmarked) [Compound 196]
17 | 1.79 nM | 18.1% | 67.4% | 97.7% | 0.608 nM | [O-][S+]1CCc2nc(N3CCc4cc(N5CCCC5)ccc4C3)nc(NCCO)c21 (centres unmarked) [Compound 198]
18 | 0.3 nM | 11.9% | 56.7% | 96.7% | 0.17 nM | O=S1(=O)C[C@H]2C[C@@H]1CN2c1ccc2c(c1)CCN(c1nc3c(c(NC4(CO)CCC4)n1)[S+]([O-])CC3)C2 (some centres unmarked) [Compound 163]
19 | 0.75 nM | 11.7% | 50.4% | 98.2% | 0.227 nM | COc1nn(C)cc1Nc1nc(N2CCc3cc(N4CCCC4)ccc3[C@@H]2C)nc2c1[S+]([O-])CC2 (some centres unmarked) [Compound 216]
